Reference: PMC3883635, “Two Different Conformations in Hepatitis C Virus p7 Protein Account for Proton Transport and Dye Release” (PLoS ONE, 2014)

Molecular target: T1, HCV-p7 (synthetic p7_1-63) (Hepatitis C virus (isolate H77), UniProt P27958)
T1 construct: mature p7 of the HCV genome polyprotein; synthetic peptide (solid-phase), extra N-terminal Met (residue 0); 63 residues plus 1; in DPhPC membranes
Assay: single channel recording in black lipid membrane
Type: biochemical
Details: DPhPC membranes; 10 µM methanol solution of p7 added; read after five minutes; concentration of HMA not in text

T1 sequence (P27958 747-809): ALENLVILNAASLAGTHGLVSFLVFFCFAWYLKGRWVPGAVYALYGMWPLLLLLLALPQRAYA

With `N=C(N)NC(=O)c1nc(Cl)c(N2CCCCCC2)nc1N` [HMA] the channel block was “HCV-p7 ion channel activity is blocked by HMA in a full trace of different voltages”.
